# Species: Rattus norvegicus
# Assay: DrugMatrix - Regimen: Daily Repeat
# Assay type: toxicity, organism-based, Sprague-Dawley
# Set-up: regimen Daily Repeat, gender Male, age 6-8 weeks
# Conditions: in vivo, po, route oral GAVAGE, […]; for BASOPHIL / EOSINOPHIL / ERYTHROCYTE COUNT / HEMATOCRIT / HEMOGLOBIN / LEUKOCYTE COUNT / LYMPHOCYTE / MEAN CORPUSCULAR HEMOGLOBIN / MEAN CORPUSCULAR HEMOGLOBIN CONCENTRATION / MEAN CORPUSCULAR VOLUME / MONOCYTE / NEUTROPHIL / PLATELET COUNT / ABSOLUTE BASOPHIL / ABSOLUTE EOSINOPHIL / ABSOLUTE LYMPHOCYTE / ABSOLUTE MONOCYTE / ABSOLUTE SEGMENTED NEUTROPHIL / NUCLEATED RED BLOOD CELLS: tissue Blood; for ALANINE AMINOTRANSFERASE / ALBUMIN / ALKALINE PHOSPHATASE / ASPARTATE AMINOTRANSFERASE / BLOOD UREA NITROGEN / CHLORIDE / CHOLESTEROL / CREATINE PHOSPHOKINASE / CREATININE / GLUCOSE / PHOSPHORUS / POTASSIUM / SODIUM / TOTAL BILIRUBIN / TOTAL PROTEIN / CARBON DIOXIDE / LACTATE DEHYDROGENASE / LIPASE / URIC ACID: tissue Plasma
# [1] = 0 mg/kg, 120 h, dose level Control, time 5 day
# [2] = 0 mg/kg, dose level Control, time 28 day
# [3] = 11 mg/kg, 72 h, dose level High, time 3 day
# [4] = 11 mg/kg, 120 h, dose level High, time 5 day
smiles,measurement,setting,value
O=[N+]([O-])c1cc([As](=O)(O)O)ccc1O [ROXARSONE],BASOPHIL,[1],0.32%
same,EOSINOPHIL,[1],0.58%
same,ERYTHROCYTE COUNT,[1],7.26 x10E6/uL
same,HEMATOCRIT,[1],46.94%
same,HEMOGLOBIN,[1],14.9 G/DL
same,LEUKOCYTE COUNT,[1],8.69 x10E3/uL
same,LYMPHOCYTE,[1],81.52%
same,MEAN CORPUSCULAR HEMOGLOBIN,[1],20.58 pg
same,MEAN CORPUSCULAR HEMOGLOBIN CONCENTRATION,[1],31.8 G/DL
same,MEAN CORPUSCULAR VOLUME,[1],64.68 fL
same,MONOCYTE,[1],2.16%
same,NEUTROPHIL,[1],13.88%
same,PLATELET COUNT,[1],1531.2 x10E3/uL
same,ALANINE AMINOTRANSFERASE,[1],33.2 u/L
same,ALBUMIN,[1],3.74 G/DL
same,ALKALINE PHOSPHATASE,[1],318 u/L
same,ASPARTATE AMINOTRANSFERASE,[1],78.6 u/L
same,BLOOD UREA NITROGEN,[1],6 mg/dL
same,CHLORIDE,[1],108.4 MEQ/L
same,CHOLESTEROL,[1],63 mg/dL
same,CREATINE PHOSPHOKINASE,[1],251 u/L
same,CREATININE,[1],0.18 mg/dL
same,GLUCOSE,[1],125.6 mg/dL
same,PHOSPHORUS,[1],12.06 mg/dL
same,POTASSIUM,[1],5.92 MEQ/L
same,SODIUM,[1],146.8 MEQ/L
same,TOTAL BILIRUBIN,[1],0.16 mg/dL
same,TOTAL PROTEIN,[1],6.06 G/DL
same,BASOPHIL,[2],0.42%
same,EOSINOPHIL,[2],0.58%
same,ERYTHROCYTE COUNT,[2],8.06 x10E6/uL
same,HEMATOCRIT,[2],48.44%
same,HEMOGLOBIN,[2],16.34 G/DL
same,LEUKOCYTE COUNT,[2],13.04 x10E3/uL
same,LYMPHOCYTE,[2],85.12%
same,MEAN CORPUSCULAR HEMOGLOBIN,[2],20.26 pg
same,MEAN CORPUSCULAR HEMOGLOBIN CONCENTRATION,[2],33.74 G/DL
same,MEAN CORPUSCULAR VOLUME,[2],60.1 fL
same,MONOCYTE,[2],1.44%
same,NEUTROPHIL,[2],11.28%
same,PLATELET COUNT,[2],1226 x10E3/uL
same,ALANINE AMINOTRANSFERASE,[2],28.6 u/L
same,ALBUMIN,[2],3.94 G/DL
same,ALKALINE PHOSPHATASE,[2],254.6 u/L
same,ASPARTATE AMINOTRANSFERASE,[2],67.8 u/L
same,BLOOD UREA NITROGEN,[2],10.4 mg/dL
same,CHLORIDE,[2],104.6 MEQ/L
same,CHOLESTEROL,[2],57.6 mg/dL
same,CREATINE PHOSPHOKINASE,[2],224.8 u/L
same,CREATININE,[2],0.4 mg/dL
same,GLUCOSE,[2],140.6 mg/dL
same,PHOSPHORUS,[2],10.66 mg/dL
same,POTASSIUM,[2],6.58 MEQ/L
same,SODIUM,[2],148.6 MEQ/L
same,TOTAL BILIRUBIN,[2],0.24 mg/dL
same,TOTAL PROTEIN,[2],6.64 G/DL
same,ABSOLUTE BASOPHIL,[3],0 CELLS/uL
same,ABSOLUTE EOSINOPHIL,[3],38.67 CELLS/uL
same,ABSOLUTE LYMPHOCYTE,[3],12107.67 CELLS/uL
same,ABSOLUTE MONOCYTE,[3],206 CELLS/uL
same,ABSOLUTE SEGMENTED NEUTROPHIL,[3],1247.67 CELLS/uL
same,BASOPHIL,[3],0%
same,EOSINOPHIL,[3],0.33%
same,ERYTHROCYTE COUNT,[3],6.03 x10E6/uL
same,HEMATOCRIT,[3],38.2%
same,HEMOGLOBIN,[3],14.6 G/DL
same,LEUKOCYTE COUNT,[3],13.6 x10E3/uL
same,LYMPHOCYTE,[3],89%
same,MEAN CORPUSCULAR HEMOGLOBIN,[3],24.2 pg
same,MEAN CORPUSCULAR HEMOGLOBIN CONCENTRATION,[3],38.2 G/DL
same,MEAN CORPUSCULAR VOLUME,[3],63.27 fL
same,MONOCYTE,[3],1.67%
same,NEUTROPHIL,[3],9%
same,NUCLEATED RED BLOOD CELLS,[3],0 /100WBC
same,PLATELET COUNT,[3],1141 x10E3/uL
same,ALANINE AMINOTRANSFERASE,[3],88 u/L
same,ALBUMIN,[3],3.93 G/DL
same,ALKALINE PHOSPHATASE,[3],483.33 u/L
same,ASPARTATE AMINOTRANSFERASE,[3],108 u/L
same,BLOOD UREA NITROGEN,[3],10.67 mg/dL
same,CARBON DIOXIDE,[3],29.33 mmol/L
same,CHLORIDE,[3],100.67 MEQ/L
same,CHOLESTEROL,[3],66.67 mg/dL
same,CREATINE PHOSPHOKINASE,[3],464.67 u/L
same,CREATININE,[3],0.15 mg/dL
same,GLUCOSE,[3],142.67 mg/dL
same,LACTATE DEHYDROGENASE,[3],448 u/L
same,LIPASE,[3],11.67 u/L
same,PHOSPHORUS,[3],11.03 mg/dL
same,POTASSIUM,[3],6.34 MEQ/L
same,SODIUM,[3],143.37 MEQ/L
same,TOTAL BILIRUBIN,[3],0.2 mg/dL
same,TOTAL PROTEIN,[3],5.6 G/DL
same,URIC ACID,[3],1.6 mg/dL
same,ABSOLUTE BASOPHIL,[4],0 CELLS/uL
same,ABSOLUTE EOSINOPHIL,[4],0 CELLS/uL
same,ABSOLUTE LYMPHOCYTE,[4],14104 CELLS/uL
same,ABSOLUTE MONOCYTE,[4],363 CELLS/uL
same,ABSOLUTE SEGMENTED NEUTROPHIL,[4],1099.67 CELLS/uL
same,NUCLEATED RED BLOOD CELLS,[4],0 /100WBC
same,CARBON DIOXIDE,[4],29.67 mmol/L
same,LACTATE DEHYDROGENASE,[4],358.67 u/L
same,LIPASE,[4],11.33 u/L
same,URIC ACID,[4],1.37 mg/dL
